Entries after “also recorded” stand apart in the source; their conditions may differ.
How the values were obtained:
[1] = system: Ca^2+-dependent inwardly rectifying K^+ channel; conditions: HeLa cells (Diaz et al.); cited from earlier work
[2] = system: cimetidine-inhibited tissues; assay: Resistance (R) of cimetidine-inhibited gastric mucosa tissues; assay type: cell-based, bullfrog; conditions: pH 7.2
Protocol: Tissues were incubated with cimetidine until acid secretion reached 0 μEq/hr cm^2; experiments were performed only if the R of paired tissues was different by 10% or less.

[3] = system: bullfrog gastric mucosa; conditions: cited from earlier work
[4] = system: bullfrog gastric mucosa; assay: Acid secretion of frog (bullfrog) gastric mucosa stimulated with histamine/carbachol or forskolin; assay type: cell-based
[5] = system: bullfrog gastric mucosa; assay type: cell-based
Protocol: FIG. 1B Electrophysiology in the bullfrog gastric mucosa. […] Removal of NH4Cl was followed by a complete recovery of R within 30 min. Data were obtained from 21 experiments and are expressed as the mean±SEM.
FIG. 1C Electrophysiology in the bullfrog gastric mucosa. […] Removal of NH4Cl was followed by a complete recovery of PD within 30 min. Data were obtained from 21 experiments and are expressed as the mean±SEM.

[6] = system: rabbit gastric glands; assay: Intracellular ATP in rabbit gastric glands; assay type: cell-based

N [NH4^+]
inhibition of Ca2+-dependent inwardly rectifying K+ channel activity [1]: potent inhibitor

Cl.N [NH4Cl, ammonium chloride]
effect of NH4Cl on R of cimetidine-inhibited tissues (in words) [2]: does not cause an increase in R; also recorded: no change in R | effect of luminal NH4Cl on tissue resistance (Yanaka et al.) [3]: significant decrement in tissue resistance | effect of basolateral NH4Cl on acid secretion (Yanaka et al.) ([3]; pH 7.2): rapidly and completely inhibits acid secretion | Rate of decline in acid secretion [4]: −0.2881 (μEq/h · cm^2)/min | acid secretion after NH4Cl washed from the nutrient bath [4]: 5.51±0.16 μEq/hr cm^2 | effect of 1-9 mM NH4Cl on acid secretion [4]: inhibition of acid secretion | least (minimum) concentration required for complete inhibition of acid secretion within 30 min [4]: 10 mM | rate of decline of acid secretion relative to cimetidine [4]: 3.6 times faster | rate of decline of acid secretion relative to omeprazole [4]: 3.2 times faster | rate of inhibition of acid secretion relative to cimetidine or omeprazole [4]: more than 3 times faster | time to complete inhibition of stimulated acid secretion [4]: ≤ 30 min | rate of acid secretion after NH4Cl ([4]; pH 7.2): 0±0 μEq/hr cm^2 | PD after NH4Cl [5]: 28.48±1.47 mvolts | PD after NH4Cl washed out [5]: 7.95±2.65 mvolts | R after NH4Cl [5]: 306.5±16.11 Ohm cm^2 | R after NH4Cl washed out [5]: 159.0±16.83 Ohm cm^2 | effect on potential difference (PD) of stimulated tissues (in words) [5]: increase in potential difference (PD) | effect on resistance (R) of stimulated tissues (in words) [5]: increase in resistance (R) | effect on concentration of ATP (in words) [6]: statistically significant reduction in the concentration of ATP | intracellular ATP [6]: 3.76±0.12 μM/mg protein | intracellular ATP, % of control [6]: 83 % of control

From patent US20040224880A1, “Regulation of gastric acid secretion by inwardly rectifying k+ channels” (Beth Israel Deaconess Medical Center, Inc., priority 2001, published 2004)
